Assay results from paper PMC6691192 (Chemical communications (Cambridge, England), 2019).

Test system: non-cancerous human breast cell line MCF-10A
Experiment: Cell viability assay
Type: cell-based
Details: for EC50(C)/EC50 (B): selectivity ratio MCF-10A over BT-474; for EC50(C)/EC50(A): selectivity ratio MCF-10A over MCF-7

Compound | EC50(C)/EC50 (B) | EC50(C)/EC50(A)
[Au(mba)(PPh3)] | 1.57 ± 0.13 | 2.34 ± 0.35
[Cl][Au].c1ccc(P(c2ccccc2)c2ccccc2)cc1 [[AuCl(PPh3)]] | 5.70 ± 0.43 | 5.30 ± 0.61
CC[P](CC)(CC)=[Au][S][C@@H]1O[C@H](COC(C)=O)[C@@H](OC(C)=O)[C@H](OC(C)=O)[C@H]1OC(C)=O [AF, [(2R,3R,4S,5R,6S)-3,4,5-tris(acetyloxy)-6-{[(triethyl-λ5-phosphanylidene)aurio]sulfanyl}oxan-2-yl]methyl acetate] | 0.81 ± 0.13 | 0.78 ± 0.11
